Measured values taken from PubChem BioAssay AID2060903 (Molecular Pharmacology Branch, DTP, NCI, 2025).

System: 377384-186-R-J1-PDC complex spheroid viability
Assay: Anticancer human tumor 377384-186-R-J1-PDC patient-derived pancreatic carcinoma cell line growth inhibition [RAS]
Details: for IC50: curve of first compound; for viability, T/C: stronger effect = lower value
Summary of the method: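 Agents were tested in combination matrices in half-log decrements from a top concentration at or near clinical Cmax (10 microM if undetermined). Targets were multi-cell spheroids of tumour lines plus HUVEC and MSC stromal cells.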

[1] = second compound 0.000949 µM, first compound 0.0316 µM
[2] = second compound 0.000949 µM, first compound 0.1 µM
[3] = second compound 0.000949 µM, first compound 0.316 µM
[4] = second compound 0.000949 µM, first compound 1 µM
[5] = second compound 0.003 µM, first compound 0.0316 µM
[6] = second compound 0.003 µM, first compound 0.1 µM
[7] = second compound 0.003 µM, first compound 0.316 µM
[8] = second compound 0.003 µM, first compound 1 µM
[9] = second compound 0.00949 µM, first compound 0.0316 µM
[10] = second compound 0.00949 µM, first compound 0.1 µM
[11] = second compound 0.00949 µM, first compound 0.316 µM
[12] = second compound 0.00949 µM, first compound 1 µM
[13] = second compound 0.03 µM, first compound 0.0316 µM
[14] = second compound 0.03 µM, first compound 0.1 µM
[15] = second compound 0.03 µM, first compound 0.316 µM
[16] = second compound 0.03 µM, first compound 1 µM
[17] = second compound 0.0949 µM, first compound 0.0316 µM
[18] = second compound 0.0949 µM, first compound 0.1 µM
[19] = second compound 0.0949 µM, first compound 0.316 µM
[20] = second compound 0.0949 µM, first compound 1 µM
[21] = second compound 0.3 µM, first compound 0.0316 µM
[22] = second compound 0.3 µM, first compound 0.1 µM
[23] = second compound 0.3 µM, first compound 0.316 µM
[24] = second compound 0.3 µM, first compound 1 µM
[25] = second compound 0.000949 µM, first compound 3.16 µM
[26] = second compound 0.000949 µM, first compound 10 µM
[27] = second compound 0.003 µM, first compound 3.16 µM
[28] = second compound 0.003 µM, first compound 10 µM
[29] = second compound 0.00949 µM, first compound 3.16 µM
[30] = second compound 0.00949 µM, first compound 10 µM
[31] = second compound 0.03 µM, first compound 3.16 µM
[32] = second compound 0.03 µM, first compound 10 µM
[33] = second compound 0.0949 µM, first compound 3.16 µM
[34] = second compound 0.0949 µM, first compound 10 µM
[35] = second compound 0.3 µM, first compound 3.16 µM
[36] = second compound 0.3 µM, first compound 10 µM
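Also: spheroids exposed to compounds for seven days before readout.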

CCN1CCN(Cc2ccc(Nc3ncc(F)c(-c4cc(F)c5nc(C)n(C(C)C)c5c4)n3)nc2)CC1 + CCn1c(-c2cc(N3CCN(C)CC3)cnc2C(C)OC)c2c3cc(ccc31)-c1csc(n1)CC(NC(=O)C1CC1C)C(=O)N1CCCC(N1)C(=O)OCC(C)(C)C2
IC50 (second compound 0.000949 µM): < 3.16 nM
IC50 (second compound 0.003 µM): < 3.16 nM
IC50 (second compound 0.00949 µM): < 3.16 nM
IC50 (second compound 0.03 µM): < 3.16 nM
IC50 (second compound 0.0949 µM): < 3.16 nM
IC50 (second compound 0.3 µM): < 3.16 nM
viability, T/C (second compound 0.000949 µM, first compound 0.00316 µM): 49.8%
viability, T/C (second compound 0.000949 µM, first compound 0.01 µM): 45%
viability, T/C [1]: 35.2%
viability, T/C [2]: 24.1%
viability, T/C [3]: 16.6%
viability, T/C [4]: 11.2%
viability, T/C (second compound 0.003 µM, first compound 0.00316 µM): 15.5%
viability, T/C (second compound 0.003 µM, first compound 0.01 µM): 14.5%
viability, T/C [5]: 15.9%
viability, T/C [6]: 10.2%
viability, T/C [7]: 6.69%
viability, T/C [8]: 4.94%
viability, T/C (second compound 0.00949 µM, first compound 0.00316 µM): 6.06%
viability, T/C (second compound 0.00949 µM, first compound 0.01 µM): 5.48%
viability, T/C [9]: 4.58%
viability, T/C [10]: 3.84%
viability, T/C [11]: 3.67%
viability, T/C [12]: 2.8%
viability, T/C (second compound 0.03 µM, first compound 0.00316 µM): 3.02%
viability, T/C (second compound 0.03 µM, first compound 0.01 µM): 2.33%
viability, T/C [13]: 2.87%
viability, T/C [14]: 2.54%
viability, T/C [15]: 2.06%
viability, T/C [16]: 2.27%
viability, T/C (second compound 0.0949 µM, first compound 0.00316 µM): 1.82%
viability, T/C (second compound 0.0949 µM, first compound 0.01 µM): 1.82%
viability, T/C [17]: 1.85%
viability, T/C [18]: 2.2%
viability, T/C [19]: 2.06%
viability, T/C [20]: 1.76%
viability, T/C (second compound 0.3 µM, first compound 0.00316 µM): 1.71%
viability, T/C (second compound 0.3 µM, first compound 0.01 µM): 3.5%
viability, T/C [21]: 2.34%
viability, T/C [22]: 1.78%
viability, T/C [23]: 2.27%
viability, T/C [24]: 1.13%

Cc1nc(N2CCC3(CC2)COC(C)C3N)c(CO)nc1Sc1ccnc(N)c1Cl (stereo unspecified) + CCn1c(-c2cc(N3CCN(C)CC3)cnc2C(C)OC)c2c3cc(ccc31)-c1csc(n1)CC(NC(=O)C1CC1C)C(=O)N1CCCC(N1)C(=O)OCC(C)(C)C2
IC50 (second compound 0.000949 µM): < 31.6 nM
IC50 (second compound 0.003 µM): < 31.6 nM
IC50 (second compound 0.00949 µM): < 31.6 nM
IC50 (second compound 0.03 µM): < 31.6 nM
IC50 (second compound 0.0949 µM): < 31.6 nM
IC50 (second compound 0.3 µM): < 31.6 nM
viability, T/C [1]: 28.9%
viability, T/C [2]: 15.6%
viability, T/C [3]: 5.63%
viability, T/C [4]: 3.93%
viability, T/C [25]: 2.14%
viability, T/C [26]: 1.26%
viability, T/C [5]: 5.98%
viability, T/C [6]: 3.1%
viability, T/C [7]: 1.7%
viability, T/C [8]: 1.39%
viability, T/C [27]: 0.72%
viability, T/C [28]: 0.71%
viability, T/C [9]: 2.71%
viability, T/C [10]: 2.19%
viability, T/C [11]: 1.28%
viability, T/C [12]: 1.66%
viability, T/C [29]: 0.87%
viability, T/C [30]: 0.71%
viability, T/C [13]: 2.03%
viability, T/C [14]: 1.9%
viability, T/C [15]: 1.46%
viability, T/C [16]: 1.09%
viability, T/C [31]: 0.71%
viability, T/C [32]: 0.28%
viability, T/C [17]: 1.82%
viability, T/C [18]: 1.54%
viability, T/C [19]: 1.69%
viability, T/C [20]: 0.9%
viability, T/C [33]: 0.56%
viability, T/C [34]: 0.2%
viability, T/C [21]: 1.8%
viability, T/C [22]: 1.68%
viability, T/C [23]: 1.39%
viability, T/C [24]: 1.08%
viability, T/C [35]: 0.69%
viability, T/C [36]: 0.21%

NC1c2ccccc2OC12CCN(c1cnc3c(N4CCCc5ncccc54)n[nH]c3n1)CC2 (stereo unspecified) + CCn1c(-c2cc(N3CCN(C)CC3)cnc2C(C)OC)c2c3cc(ccc31)-c1csc(n1)CC(NC(=O)C1CC1C)C(=O)N1CCCC(N1)C(=O)OCC(C)(C)C2
IC50 (second compound 0.000949 µM): < 31.6 nM
IC50 (second compound 0.003 µM): < 31.6 nM
IC50 (second compound 0.00949 µM): < 31.6 nM
IC50 (second compound 0.03 µM): < 31.6 nM
IC50 (second compound 0.0949 µM): < 31.6 nM
IC50 (second compound 0.3 µM): < 31.6 nM
viability, T/C [1]: 5.69%
viability, T/C [2]: 3.23%
viability, T/C [3]: 1.88%
viability, T/C [4]: 1.71%
viability, T/C [25]: 1.35%
viability, T/C [26]: 0.78%
viability, T/C [5]: 2.74%
viability, T/C [6]: 1.37%
viability, T/C [7]: 1.06%
viability, T/C [8]: 0.67%
viability, T/C [27]: 0.28%
viability, T/C [28]: 0.2%
viability, T/C [9]: 1.78%
viability, T/C [10]: 1.22%
viability, T/C [11]: 0.77%
viability, T/C [12]: 0.41%
viability, T/C [29]: 1.43%
viability, T/C [30]: 0.08%
viability, T/C [13]: 2.14%
viability, T/C [14]: 1.39%
viability, T/C [15]: 1%
viability, T/C [16]: 0.36%
viability, T/C [31]: 0.18%
viability, T/C [32]: 0.1%
viability, T/C [17]: 1.61%
viability, T/C [18]: 1.57%
viability, T/C [19]: 0.67%
viability, T/C [20]: 0.17%
viability, T/C [33]: 0.13%
viability, T/C [34]: 0.29%
viability, T/C [21]: 1.41%
viability, T/C [22]: 1.04%
viability, T/C [23]: 0.5%
viability, T/C [24]: 0.27%
viability, T/C [35]: 0.14%
viability, T/C [36]: 0.1%
